The source of these data is PubChem BioAssay (NCI).

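Step 1: Grow cells in 96-well plates. Step 2: Expose to compound for 48 hours at 5 concentrations. Step 3: Interpolate endpoints linearly; if unreached, use highest concentration. TGI: concentration producing complete growth inhibition.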 Bounds are passed on as bounds.

Some test systems named below: SF-268 CNS; HOP-92 NSCLC; RPMI-8226 leukemia; A549 NSCLC; HCC-2998 colon; SK-MEL-28 melanoma; UO-31 renal; LOX IMVI melanoma; OVCAR-8 ovarian; HOP-62 NSCLC; NCI-H226 lung; HCT-15 colon; SNB-75 CNS; M14 melanoma; A498 renal; NCI-H460 lung; SK-MEL-5 melanoma; UACC-257 melanoma; U251 CNS; IGROV1 ovarian.
Test in all cases: NCI anticancer screen, dose series, 48 h

Consider `O=c1cnn(C/C=C\CO)c(=O)[nH]1`, for which the TGI with SF-268 CNS, in the experiment with HOP-92 NSCLC, with RPMI-8226 leukemia, with A549 NSCLC, in the experiment with HCC-2998 colon and in the experiment with SK-MEL-28 melanoma was > 100 µM throughout. Also, the TGI with UO-31 renal, with LOX IMVI melanoma, with OVCAR-8 ovarian, with HOP-62 NSCLC, with NCI-H226 lung and with HCT-15 colon was > 100 µM throughout. Further, the TGI in the experiment with SNB-75 CNS, with M14 melanoma, in the experiment on A498 renal, in the experiment with NCI-H460 lung, with SK-MEL-5 melanoma and in the experiment with UACC-257 melanoma was > 100 µM in each case. The TGI in the experiment with U251 CNS and with IGROV1 ovarian was > 100 µM each time.
With `COC(=O)C(=O)C(C(=O)Nc1cccc(C)c1C)C1Sc2ccccc2NC1=O` (stereo not given), the TGI with SF-268 CNS, in the experiment on HOP-92 NSCLC, in the experiment on RPMI-8226 leukemia, with A549 NSCLC, in the experiment with HCC-2998 colon and in the experiment with SK-MEL-28 melanoma was > 25 µM in each case. The TGI in the experiment with UO-31 renal, with LOX IMVI melanoma, with OVCAR-8 ovarian, in the experiment on HOP-62 NSCLC, in the experiment with NCI-H226 lung and in the experiment with HCT-15 colon was > 25 µM throughout. Moreover, the TGI in the experiment on SNB-75 CNS, in the experiment with M14 melanoma, in the experiment on A498 renal, in the experiment on NCI-H460 lung, with SK-MEL-5 melanoma and with UACC-257 melanoma was > 25 µM in each case. Also, the TGI in the experiment with U251 CNS and in the experiment on IGROV1 ovarian was > 25 µM each time.
Turning to `Cn1cnc([N+](=O)[O-])c1Sc1nc2cc(Cl)c(F)cc2[nH]1`, the TGI was found to be 29.5 µM in the experiment on SF-268 CNS; 28.9 µM in the experiment with HOP-92 NSCLC; 40.3 µM with RPMI-8226 leukemia; 54.3 µM in the experiment with A549 NSCLC; 20.7 µM with HCC-2998 colon; 27.3 µM in the experiment on SK-MEL-28 melanoma. For the same compound, the TGI with UO-31 renal was 27.6 µM; in the experiment on LOX IMVI melanoma, 39.7 µM; in the experiment on OVCAR-8 ovarian it was 23.2 µM; in the experiment on HOP-62 NSCLC, > 100 µM; in the experiment with NCI-H226 lung, 33 µM; in the experiment with HCT-15 colon it was 17.6 µM. In addition, the TGI in the experiment with SNB-75 CNS worked out at 39.3 µM; in the experiment with M14 melanoma it was 27.6 µM; in the experiment with A498 renal, 51 µM; with NCI-H460 lung, 27.7 µM; in the experiment on SK-MEL-5 melanoma, 24 µM; with UACC-257 melanoma, 25.2 µM. The TGI in the experiment on U251 CNS was determined as 24 µM; in the experiment with IGROV1 ovarian, 35.8 µM.
